Results taken from ChEMBL document CHEMBL3352057, “Novel fluorinated pyrrolo[1,2-a]pyrazine-2,6-dione derivatives: synthesis and anticonvulsant evaluation in animal models of epilepsy” (Bioorg Med Chem, 2014).
Activity calls are given as the source filed them. The rule behind the calls is not given here.

Tests used:
Mus musculus [1] = assay: Anticonvulsant activity in ip dosed albino CF1 mouse assessed as protection against 6 Hz current-induced seizures measured as time to peak effect; format: functional
Mus musculus [2] = assay: Neurotoxicity in ip dosed 6 Hz current-induced seizure albino CF1 mouse model; format: toxicity, organism-based; conditions: in vivo
Mus musculus [3] = assay: Anticonvulsant activity in ip dosed albino CF1 mouse assessed as protection against maximal electroshock-induced seizures measured as time to peak effect; format: functional
Mus musculus [4] = assay: Anticonvulsant activity in ip dosed albino CF1 mouse assessed as protection against 6 Hz current-induced seizures; format: functional
Mus musculus [5] = assay: Anticonvulsant activity in ip dosed albino CF1 mouse assessed as protection against subcutaneous metrazol-induced seizures; format: functional
[6] = Neurotoxicity in ip dosed albino CF1 mouse; format: toxicity, organism-based; conditions: in vivo
Mus musculus [7] = assay: Anticonvulsant activity in ip dosed albino CF1 mouse assessed as protection against maximal electroshock-induced seizures; format: functional
Mus musculus [8] = assay: Anticonvulsant activity in ip dosed corneal kindled albino CF1 mouse seizure model assessed as time to peak effect; format: functional
Mus musculus [9] = assay: Anticonvulsant activity in ip dosed corneal kindled albino CF1 mouse seizure model; format: functional
[10] = Protective index, ratio of TD50 for neurotoxicity in ip dosed albino CF1 mouse to ED50 for anticonvulsant activity in ip dosed 6 Hz current-induced seizure albino CF1 mouse model; format: toxicity, organism-based; conditions: in vivo, read-out: Ratio TD50/ED50
[11] = Protective index, ratio of TD50 for neurotoxicity in ip dosed Sprague-Dawley rat to ED50 for anticonvulsant activity in ip dosed MES Sprague-Dawley rat model; format: toxicity, organism-based; conditions: in vivo, read-out: Ratio TD50/ED50
Rattus norvegicus [12] = assay: Anticonvulsant activity in ip dosed Sprague-Dawley rat assessed as protection against maximal electroshock-induced seizures measured as time to peak effect; format: functional
Rattus norvegicus [13] = assay: Anticonvulsant activity in ip dosed Sprague-Dawley rat assessed as protection against subcutaneous metrazol-induced seizures; format: functional
Rattus norvegicus [14] = assay: Anticonvulsant activity in ip dosed Sprague-Dawley rat assessed as protection against maximal electroshock-induced seizures; format: functional
[15] = Neurotoxicity in ip dosed Sprague-Dawley rat measured at 0.25 hr post dose; format: toxicity, organism-based; conditions: in vivo
Rattus norvegicus [16] = assay: Anticonvulsant activity in ip dosed Sprague-Dawley rat assessed as protection against subcutaneous metrazol-induced seizures measured at 0.25 hr post dose; format: functional
Mus musculus [17] = assay: Anticonvulsant activity in albino CF1 mouse assessed as protection against subcutaneous metrazol-induced seizures at 100 mg/kg, ip measured after 4 hrs; format: functional, organism-based; parameters: dose 100 mg/kg
Mus musculus [18] = assay: Neurotoxicity in albino CF1 mouse at 100 mg/kg, ip measured after 0.5 hr; format: toxicity, organism-based; parameters: dose 100 mg/kg, route intraperitoneal; conditions: in vivo
Mus musculus [19] = assay: Neurotoxicity in albino CF1 mouse at 100 mg/kg, ip measured after 0.25 hr; format: toxicity, organism-based; parameters: dose 100 mg/kg, route intraperitoneal; conditions: in vivo
Mus musculus [20] = assay: Neurotoxicity in albino CF1 mouse at 100 mg/kg, ip measured after 1 hr; format: toxicity, organism-based; parameters: dose 100 mg/kg, route intraperitoneal; conditions: in vivo
Mus musculus [21] = assay: Anticonvulsant activity in albino CF1 mouse assessed as protection against 32 mA current-induced seizures at 100 mg/kg, ip measured after 2 hrs; format: functional, organism-based; parameters: dose 100 mg/kg
Mus musculus [22] = assay: Anticonvulsant activity in albino CF1 mouse assessed as protection against 32 mA current-induced seizures at 100 mg/kg, ip measured after 4 hrs; format: functional, organism-based; parameters: dose 100 mg/kg
Mus musculus [23] = assay: Anticonvulsant activity in albino CF1 mouse assessed as protection against maximal electroshock-induced seizures at 100 mg/kg, ip measured after 0.5 hr; format: functional, organism-based; parameters: dose 100 mg/kg
Mus musculus [24] = assay: Anticonvulsant activity in albino CF1 mouse assessed as protection against 32 mA current-induced seizures at 100 mg/kg, ip measured after 0.25 hr; format: functional, organism-based; parameters: dose 100 mg/kg
Mus musculus [25] = assay: Anticonvulsant activity in albino CF1 mouse assessed as protection against 32 mA current-induced seizures at 100 mg/kg, ip measured after 1 hr; format: functional, organism-based; parameters: dose 100 mg/kg
Mus musculus [26] = assay: Anticonvulsant activity in albino CF1 mouse assessed as protection against maximal electroshock-induced seizures at 100 mg/kg, ip measured after 4 hrs; format: functional, organism-based; parameters: dose 100 mg/kg
Mus musculus [27] = assay: Neurotoxicity in 32 mA current-induced seizure albino CF1 mouse model at 100 mg/kg, ip measured after 4 hrs; format: toxicity, organism-based; parameters: dose 100 mg/kg, route intraperitoneal; conditions: in vivo
Mus musculus [28] = assay: Anticonvulsant activity in albino CF1 mouse assessed as protection against maximal electroshock-induced seizures at 100 mg/kg, ip measured after 1 hr; format: functional, organism-based; parameters: dose 100 mg/kg
Mus musculus [29] = assay: Neurotoxicity in albino CF1 mouse at 100 mg/kg, ip measured after 4 hrs; format: toxicity, organism-based; parameters: dose 100 mg/kg, route intraperitoneal; conditions: in vivo
Mus musculus [30] = assay: Anticonvulsant activity in albino CF1 mouse assessed as protection against 32 mA current-induced seizures at 100 mg/kg, ip measured after 0.5 hr; format: functional, organism-based; parameters: dose 100 mg/kg
Mus musculus [31] = assay: Anticonvulsant activity in albino CF1 mouse assessed as protection against subcutaneous metrazol-induced seizures at 100 mg/kg, ip measured after 1 hr; format: functional, organism-based; parameters: dose 100 mg/kg
Rattus norvegicus [32] = assay: Anticonvulsant activity in pilocarpine-induced status prevention Sprague-Dawley rat model assessed as weight change 24 hrs post-first stage 3 seizure of non-protected rat at 300 mg/kg, ip measured after 0.5 hr; format: functional; conditions: route intraperitoneal
Mus musculus [33] = assay: Neurotoxicity in 32 mA current-induced seizure albino CF1 mouse model at 100 mg/kg, ip measured after 0.5 hr; format: toxicity, organism-based; parameters: dose 100 mg/kg, route intraperitoneal; conditions: in vivo
Mus musculus [34] = assay: Neurotoxicity in 32 mA current-induced seizure albino CF1 mouse model at 100 mg/kg, ip measured after 1 hr; format: toxicity, organism-based; parameters: dose 100 mg/kg, route intraperitoneal; conditions: in vivo
Mus musculus [35] = assay: Neurotoxicity in 32 mA current-induced seizure albino CF1 mouse model at 100 mg/kg, ip measured after 0.25 hr; format: toxicity, organism-based; parameters: dose 100 mg/kg, route intraperitoneal; conditions: in vivo
Mus musculus [36] = assay: Anticonvulsant activity in albino CF1 mouse assessed as protection against subcutaneous metrazol-induced seizures at 100 mg/kg, ip measured after 0.5 hr; format: functional, organism-based; parameters: dose 100 mg/kg
Mus musculus [37] = assay: Neurotoxicity in 32 mA current-induced seizure albino CF1 mouse model at 100 mg/kg, ip measured after 2 hrs; format: toxicity, organism-based; parameters: dose 100 mg/kg, route intraperitoneal; conditions: in vivo
Rattus norvegicus [38] = assay: Anticonvulsant activity in pilocarpine-induced status prevention Sprague-Dawley rat model assessed as weight change 24 hrs post-first stage 3 seizure of protected rat at 300 mg/kg, ip measured after 0.5 hr; format: functional; conditions: route intraperitoneal
Mus musculus [39] = assay: Anticonvulsant activity in albino CF1 mouse assessed as protection against subcutaneous metrazol-induced seizures at 100 mg/kg, ip measured after 0.25 hr; format: functional, organism-based; parameters: dose 100 mg/kg
Mus musculus [40] = assay: Anticonvulsant activity in albino CF1 mouse assessed as protection against maximal electroshock-induced seizures at 100 mg/kg, ip measured after 0.25 hr; format: functional, organism-based; parameters: dose 100 mg/kg

CCC1(C)CC(=O)NC1=O (stereo not given) [ETHOSUXIMIDE]
Time (Mus musculus [1]): 0.25 h | ED50 (Mus musculus [2]): 166 µmol/kg | Time (Mus musculus [3]): 0.25 h | ED50 (Mus musculus [4]): 1180 µmol/kg | ED50 (Mus musculus [5]): 964 µmol/kg | TD50 [6]: 2420 µmol/kg | ED50 (Mus musculus [7]): > 3550 µmol/kg

CC[C@@H](C(N)=O)N1CCCC1=O
Time (Mus musculus [1]): 1 h | ED50 (Mus musculus [2]): 252 µmol/kg | Time (Mus musculus [8]): 0.5 h | ED50 (Mus musculus [9]): 94 µmol/kg | ED50 (Mus musculus [4]): 114 µmol/kg | selectivity ratio [10]: > 25.8

CCCC(CCC)C(=O)[O-].[Na+] [VALPROATE SODIUM]
selectivity ratio [11]: 2.1 | Time (Mus musculus [8]): 0.5 h | Time (Rattus norvegicus [12]): 0.5 h | ED50 (Rattus norvegicus [13]): 1420 µmol/kg | ED50 (Mus musculus [9]): 948 µmol/kg | ED50 (Rattus norvegicus [14]): 890 µmol/kg | TD50 at 0.25 h [15]: 1910 µmol/kg | ED50 (Rattus norvegicus [16]): 1420 µmol/kg

O=C1NC(=O)[C@@H]2CCCN2[C@H]1c1ccc(F)cc1
Activity (Mus musculus [17]): inactive | Activity (Mus musculus [18]): Non-toxic | Activity (Mus musculus [19]): Non-toxic | Activity (Mus musculus [20]): Non-toxic | Activity (Mus musculus [21]): inactive | Activity (Mus musculus [22]): inactive | Activity (Mus musculus [23]): inactive | Activity (Mus musculus [24]): Active | Activity (Mus musculus [25]): inactive | Activity (Mus musculus [26]): inactive | Activity (Mus musculus [27]): Non-toxic | Activity (Mus musculus [28]): Active | Activity (Mus musculus [29]): Non-toxic | Activity (Mus musculus [30]): inactive | Activity (Mus musculus [31]): inactive | Activity (Rattus norvegicus [32]): -30 g | Activity (Mus musculus [33]): Non-toxic | Activity (Mus musculus [34]): Non-toxic | Activity (Mus musculus [35]): Non-toxic | Activity (Mus musculus [36]): inactive | Activity (Mus musculus [37]): Non-toxic | Activity (Rattus norvegicus [38]): -12 g | Activity (Mus musculus [39]): Active | Activity (Mus musculus [40]): Active
